{
  "source": "patent US12064405B2",
  "about": "“Immunosuppressant comprising TSAHC or a pharmaceutically acceptable salts thereof as an active ingredient” (Seoul National University R&DB Foundation, priority 2020, dated 2024)",
  "key": {"[1]": {"system": "M0 THP-1 cells expressing TM4SF5", "assay": "Glycolytic Proton Efflux Rate (GlycoPER) in M0 THP-1 cells treated with CCL20 or CXCL10", "format": "cell-based, human", "settings": "300 ng/ml for 24 hours, FIG. 9", "description": "THP-1 cells infected with a lentivirus with an empty vector not expressing TM4SF5 or a lentivirus expressing TM4SF5 were treated with 100 nM phorbol-12-myristate-13-acetate (PMA) for 24 hours to differentiate into M0 cells (experimental condition to confirm the not repetitive effects of cytokines/chemokines in the early stage by representing the case before differentiation into M1 type), and then, 300 ng/ml of CCL20 or CXCL10 was treated for 24 hours, and basal and compensatory Glycolytic Proton Efflux Rate (GlycoPER) were measured using a Seahorse XFp device."}, "[2]": {"system": "M1 and M2 type macrophages differentiated from THP-1 cells", "assay": "qRT-PCR of M1 or M2 type macrophage markers in macrophages differentiated from THP-1 cells", "format": "cell-based, human", "settings": "100 nM for 24 hours; for mRNA levels of M1 type macrophage markers (TNFα, IL1β, IL6) compared to the control group: M1 type macrophages, FIG. 12A", "description": "M1 and M2 type macrophages (MΦ) differentiated from THP-1 cells were treated with CCL20 or CXCL10 at a concentration of 100 nM for 24 hours, and then the mRNA expression levels of the markers indicating the activity as M1 or M2 type macrophages were confirmed by qRT-PCR. For M1 type macrophages, the mRNA expression levels of TNFα, IL1β and IL6 were measured, and for M2 type macrophages, the mRNA expression levels of CD206 and FN1 were measured."}, "Ccl20": {"system": "Ccl20", "assay": "CCl4-induced liver damage, inflammation and fibrosis with suppression of Ccl20 expression by siRNA", "format": "in vivo, mouse", "description": "12-week-old normal WT or Tm4sf5^−/− KO mice (5 per group) were intraperitoneally injected with CCl4 (TRC, Canada, C176905, 10 mg/kg/40% olive oil) twice a week for 4 weeks. Ccl20 siRNA [sense 5′-GGAGGAAAUGAUCACAGCUtt-3′ (SEQ. ID. NO: 101), antisense 5′-AGCUGUGAUCAUUUCCUCCtt-3 (SEQ. ID. NO: 102) was purchased from Ambion (Austin Texas, USA) and diluted to an appropriate concentration in PBS. Ccl20 siRNA (1.66 mg/kg) or vehicle was intravenously injected into the mice twice a week. After 4 weeks, liver and blood samples of the animals were obtained.\nAs shown in the scheme of FIG. 5, 12-week-old normal C57BL/6 mice were intraperitoneally injected with CCl4 (40% in olive oil) at a concentration of 10 mg/kg body weight twice a week for 26 days. At the same time, siRNA against CCL20 (Amibon, Austin Texas, USA, Assay ID 72932, sense 5′-GGAGGAAAUGAUCACAGCUtt-3′, antisense 5′-AGCUGUGAUCAUUUCCUCCtt-3′) dissolved in PBS at a concentration of 1.66 mg/kg was intravenously injected for 26 days before the CCl4 injection. After 26 days of the injection, the mice were sacrificed, and the liver tissue was obtained. Then, the disease state of the liver was investigated by performing immunohistochemistry (IHC), Masson's trichrome staining and qRT-PCR.\nSpecifically, for H&E staining, the tissue was placed in a 60° C. oven for about 20 minutes to separate the tissue from paraffin, and when the paraffin melted, the tissue was immersed in xylene three times for 5 minutes each. The tissue was put into 100%→90%→80%→70% ethanol→distilled water for 3 minutes each in the order, and then immersed in a hematoxylin solution for 5 minutes to react. After sufficiently washing the tissue with tap water, it was reacted with an eosin solution for about 20 minutes, and washed again with tap water. Then, the tissue was immersed in 70%→80%→90%→100% ethanol→xylene for 3 minutes each in the order for dehydration, followed by mounting on a slide.\nParaffin blocks and liver tissue sections for immunohistochemical staining were obtained from Abion Inc. (Seoul, Korea). As antibodies, F4/80 (Cell Signaling Technology), Ccl20, laminin γ2 (Santa Cruz Biotechnology) were used.\nFor Masson's trichrome staining, the tissue was first separated from paraffin and then reacted in a preheated bouin's solution for 1 hour. After rinsing the tissue with tap water until the solution was completely drained, it was reacted in a hematoxylin solution for 10 minutes, and then rinsed again with tap water. Then, the tissue was reacted in a biebrich scarlet-acid fuchsin solution for 5 minutes, immersed in distilled water, and reacted in a phosphotungstic/phosphomolybdic acid solution for 15 minutes. The tissue was immersed in an Aniline blue solution for 10 minutes and 1% acetic acid for 1 minute for dehydration. The tissue was immersed in xylene, followed by mounting on a slide."}, "[3]": {"system": "cell lines expressing TM4SF5", "assay": "qRT-PCR of M1-type macrophage chemokines/cytokines CCL2, TNF-α, IL-6, IL-1β", "format": "cell-based", "settings": "cell line expressing TM4SF5, LPS and IFN-γ", "description": "Cell lines not expressing TM4SF5 (EV) or cell lines expressing thereof (TM4SF5) were treated (+) or not treated with LPS and IFN-γ, treated (+) or not treated with 2-DG (2-Deoxy-D-glucose) as a drug for inhibiting glycolysis at a given concentration, and additionally treated (+) or not treated with TSAHC (−). Then, the mRNA expression levels of CCL2, TNF-α, IL-6, and IL-1β, the chemokines/cytokines indicating the activation of M1-type macrophages, were confirmed by qRT-PCR."}, "cells expressing TM4SF5": {"system": "cells expressing TM4SF5", "assay": "Activation of glycolytic function (acidification of extracellular solution, Seahorse)", "format": "cell-based", "description": "The cells expressing TM4SF5 were treated with vehicle, a negative control compound (4′-methoxy-4-dihydroxychalcone) or TSAHC. Then, the degree of activation of glycolytic function was measured by measuring the acidification of the extracellular solution due to glycolysis while additionally adding glucose at various concentrations using Seahorse equipment."}},
  "data": [
    {"compound": "CXCL10: chemokine used to treat THP-1-derived macrophages", "values": [
      {"measurement": "glycolytic function (basal and compensatory GlycoPER) versus vehicle-treated control group", "setting": "[1]", "value": "higher"},
      {"measurement": "mRNA levels of M1 type macrophage markers (TNFα, IL1β, IL6) compared to the control group", "setting": "[2]", "value": "decreased"}
    ]},
    {"compound": "CCL20: chemokine used to treat THP-1-derived macrophages", "values": [
      {"measurement": "glycolytic function (basal and compensatory GlycoPER) versus vehicle-treated control group", "setting": "[1]", "value": "higher"},
      {"measurement": "mRNA levels of M1 type macrophage markers (TNFα, IL1β, IL6) compared to the control group", "setting": "[2]", "value": "decreased"},
      {"measurement": "mRNA levels of M2 type macrophage markers (CD206, FN1)", "setting": "[2]; M2 type macrophages, CCL20 alone or together with CXCL10, FIG. 12B", "value": "significantly increased"}
    ]},
    {"compound": "Ccl20 siRNA: siRNA against CCL20 (Ambion), sense 5′-GGAGGAAAUGAUCACAGCUtt-3′, antisense 5′-AGCUGUGAUCAUUUCCUCCtt-3′ (sense GGAGGAAAUGAUCACAGCUTT; antisense AGCUGUGAUCAUUUCCUCCTT; chemistry not given here)", "values": [
      {"measurement": "collagen type 1 α1 chain (Col1α1) mRNA level in liver", "setting": "Ccl20; during CCl4 treatment, FIG. 6A", "value": "decreased"},
      {"measurement": "Ccl20 mRNA level in liver", "setting": "Ccl20; during CCl4 treatment, FIG. 6B", "value": "decreased"},
      {"measurement": "F4/80 mRNA level in liver", "setting": "Ccl20; during CCl4 treatment, FIG. 6C", "value": "decreased"},
      {"measurement": "α-smooth muscle actin (Sma) mRNA level in liver", "setting": "Ccl20; during CCl4 treatment, FIG. 6D", "value": "decreased"},
      {"measurement": "effect of CCl4 treatment (liver tissue damage, collagen accumulation, Ccl20 and Cxcl10 accumulation, F4/80 macrophage infiltration, laminin γ2 accumulation)", "setting": "Ccl20; siRNA 1.66 mg/kg intravenously, CCl4 10 mg/kg twice a week, 26 days, FIG. 5", "value": "significantly inhibited"}
    ]},
    {"compound": "O=CC[C@@H](O)[C@H](O)[C@H](O)CO", "note": "[2-DG, 2-Deoxy-D-glucose, reference compound]", "values": [
      {"measurement": "CCL2 mRNA expression level", "setting": "[3]; FIG. 11A", "value": "decreased"},
      {"measurement": "TNF-α mRNA expression level", "setting": "[3]; FIG. 11B", "value": "decreased"},
      {"measurement": "IL-6 mRNA expression level", "setting": "[3]; FIG. 11C", "value": "decreased"},
      {"measurement": "IL-1β mRNA expression level", "setting": "[3]; FIG. 11D", "value": "decreased"}
    ]},
    {"compound": "4′-methoxy-4-dihydroxychalcone [control compound, reference compound]", "values": [
      {"measurement": "glycolysis of the cells not expressing TM4SF5 (EV)", "setting": "cells expressing TM4SF5; EV cell line, FIG. 8B", "value": "not changed"},
      {"measurement": "glycolytic function of cells expressing TM4SF5", "setting": "cells expressing TM4SF5; various concentrations of glucose added, FIG. 8C", "value": "not changed"}
    ]}
  ]
}
